Experimental data published in patent US6972175B2, “Inhibition of Egr-1 expression by ppar-gamma agonists and related compositions and methods” (priority 2002, dated 2005).

What was measured:
[1] = system: Egr-1 mRNA; assay: Egr-1 mRNA levels by Northern blotting in hypoxic mononuclear phagocytes; type: cell-based, rat; conditions: NR8383 cells, ligand added 6 hours before 30 minutes hypoxia; Northern blot, FIG. 1a
Description: Cell culture and induction of hypoxia. A rat alveolar macrophage cell line (NR8383) was obtained from the ATCC (Manassas, Va.), and cells were grown to 70% confluence in Ham's F-12K medium containing 15% heat-inactivated fetal bovine serum. Cells were made quiescent by serum starvation (0.2%, fetal bovine serum) for 24 hours. The PPAR-γ ligands were obtained from the following sources: troglitazone was provided by Sankyo Pharmaceutical Co. (Tokyo, Japan); and 15-d-PGJ2 was purchased from Cayman Chemical Co. (Ann Arbor, Mich.). The PPAR-α ligand bezafibrate was obtained from Sigma Chemical Co. (St. Louis. Mo.). These PPAR ligands were dissolved in minute quantities of DMSO (final concentration 0.005%). PPAR ligands were added 6 hours prior to induction of hypoxia. […]

[2] = system: Egr-1 protein; assay: Egr-1 protein expression by Western blotting in hypoxic mononuclear phagocytes; type: cell-based, rat; conditions: ligand added 6 hours before 30 minutes hypoxia; Western blot, FIG. 1b
Description: (§1) Cell culture and induction of hypoxia. A rat alveolar macrophage cell line (NR8383) was obtained from the ATCC (Manassas, Va.), and cells were grown to 70% confluence in Ham's F-12K medium containing 15% heat-inactivated fetal bovine serum. Cells were made quiescent by serum starvation (0.2%, fetal bovine serum) for 24 hours. The PPAR-γ ligands were obtained from the following sources: troglitazone was provided by Sankyo Pharmaceutical Co. (Tokyo, Japan); and 15-d-PGJ2 was purchased from Cayman Chemical Co. (Ann Arbor, Mich.). The PPAR-α ligand bezafibrate was obtained from Sigma Chemical Co. (St. Louis. Mo.). These PPAR ligands were dissolved in minute quantities of DMSO (final concentration 0.005%). PPAR ligands were added 6 hours prior to induction of hypoxia. Using an environmental chamber described previously (Yan, 1999), cells were subjected to 30 minutes hypoxia (pO2 in the medium ˜12–14 torr. This time was chosen because it has previously been shown that this is the time of maximal Egr-1 expression in hypoxic macrophages. Cells subjected to hypoxia were placed in medium pre-equilibrated with the hypoxic gas mixture just prior to placement in the environmental chamber. Thus, cultures were immersed immediately in the oxygen-deprived environment at the time of medium change, coinciding with time of placement in the chamber.
Western blotting. […]

[3] = system: Egr-1/DNA binding; assay: Electrophoretic mobility gel shift assay on nuclear extracts from NR8383 cells; type: cell-based, rat; conditions: nuclear extracts of NR8383 cells 30 minutes after hypoxia; 1 or 20 μM 15-d-PGJ2, 20 μM troglitazone, 20 μM bezafibrate; FIG. 1c
Description: as §1
Electrophoretic mobility gel shift assay. […]

[4] = system: Egr-1; assay: Hypoxia-driven Egr-1 induction in macrophages (data not shown); type: cell-based
Description: as §1

[5] = Murine survival following lung ischemia/reperfusion injury; type: in vivo, mouse; conditions: 1 hour after circulatory exclusion of nonischemic lung
Description: Murine ischemia/reperfusion model. C57BL6/J mice (male, 12–15 weeks old) purchased from Jackson Laboratories (Bar Harbor, Me.) were used in these experiments according to a protocol approved by the Institutional Animal Care and Use Committee at Columbia University, in accordance with guidelines of the American Association for the Accreditation of Laboratory Animal Care.
Troglitazone was administered to mice by oral gavage (0.1 mL/mouse) for 7 days at doses of 0, 5, and 100 mg/kg/day, prepared as a suspension in 0.5% methylcellulose solution. For control experiments, methylcellulose solution alone was used for gavage (these experiments are referred to as “vehicle” controls). The ischemia/reperfusion stress followed on day 8. […] Survival was measured 1 hour after circulatory exclusion of the nonoperated lung (by ligating the right hilum), which was performed after both the ischemic and reperfusion (3 hours) periods had elapsed. […]
Statistics. […] Survival was estimated by the Kaplan-Meier method, with differences in survival determined by log-rank analysis. Values are expressed as mean±standard error of the mean (SEM), with differences considered statistically significant when p<0.05.

| Structure (SMILES) | Egr-1 mRNA levels after hypoxia [1] | Egr-1 protein levels after hypoxia [2] | gel shift band associated with Egr-1/DNA binding [3] | hypoxia-driven Egr-1 induction in macrophages [4] | potency of inhibition of hypoxia-induced Egr-1 expression compared with troglitazone ([4]; macrophages, parallel study) | survival relative to vehicle-treated mice ([5]; vehicle 10% survival) [times] | survival ([5]; 1 hour ischemia, 3 hours reperfusion, FIG. 4f) [%] |
| --- | --- | --- | --- | --- | --- | --- | --- |
| CCCCCC=CC=C1C(=O)C=C[C@@H]1CC=CCCCC(=O)O [15-d-PGJ2, 15-deoxy-Δ^12,14-prostaglandinJ2] | significantly reduced | significantly inhibited | virtually abrogated | inhibited hypoxia-induced expression of Egr-1 | equal potency as troglitazone |  |  |
| Cc1c(C)c2c(c(C)c1O)CCC(C)(COc1ccc(CC3SC(=O)NC3=O)cc1)O2 (stereo not shown) [troglitazone] |  |  |  |  |  | 4 | 40 |
